The record followed here is patent US11839613B2, “Pyrimidine derivatives as PGE2 receptor modulators” (IDORSIA PHARMACEUTICALS LTD, priority 2017, dated 2023).

Each structure is given as a SMILES string.

One assay addresses PTGER2 (EP2) (Homo sapiens (Human), UniProt P43116). Nature of the assay: hEP2 b-arrestin assay (PathHunter HEK 293 PTGER2 b-arrestin cells). It counts as cell-based. The settings on record: antagonistic activity, beta-arrestin assay; read-out: hEP2 b-arr IC50. As to the method:
Plate is pre-incubated 15 minutes at 37° C. Then five microliters of PGE2 (final conc. 5 μM) are transferred into the assay plate. Plate is incubated 120 minutes at 37° C.
(each concentration is measured in duplicate)

A further assay deals with EP2 (Homo sapiens (Human), UniProt P43116). The assay can be described thus: hEP2 cAMP assay (SF295 glioblastoma cells, HTRF cAMP). It counts as cell-based. Conditions: antagonistic activity. In short, it runs like this:
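PGE2-driven cAMP accumulation was measured by HTRF in SF295 cells, which express endogenous EP2 only. Cells in assay buffer with 2 mM IBMX were pre-incubated 45 min at RT, then incubated 30 min at RT. Detection used competition between cellular cAMP and d2-cAMP for a cryptate anti-cAMP antibody.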
In general terms: cAMP levels reflect the balance of adenylyl cyclase and phosphodiesterase activity.

A further assay addresses PTGER4 (EP4) (Homo sapiens (Human), UniProt P35408).
In a further assay the target is EP4 (Homo sapiens (Human), UniProt P35408). The assay can be described thus: hEP4 cAMP assay (BT549 breast cancer cells, HTRF cAMP). It counts as cell-based. Conditions: antagonistic activity, PGE2 6 nM. In outline:
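BT549 breast cancer cells (endogenous EP4) in HBSS/20 mM HEPES/0.2% BSA/2 mM IBMX preincubated 45 min at RT with compound, then stimulated 30 min at RT with 6 nM PGE2 (final). cAMP read by competitive HTRF immunoassay, signal inversely proportional to cAMP.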

PTGER2 (EP2), sequence (P43116 whole entry): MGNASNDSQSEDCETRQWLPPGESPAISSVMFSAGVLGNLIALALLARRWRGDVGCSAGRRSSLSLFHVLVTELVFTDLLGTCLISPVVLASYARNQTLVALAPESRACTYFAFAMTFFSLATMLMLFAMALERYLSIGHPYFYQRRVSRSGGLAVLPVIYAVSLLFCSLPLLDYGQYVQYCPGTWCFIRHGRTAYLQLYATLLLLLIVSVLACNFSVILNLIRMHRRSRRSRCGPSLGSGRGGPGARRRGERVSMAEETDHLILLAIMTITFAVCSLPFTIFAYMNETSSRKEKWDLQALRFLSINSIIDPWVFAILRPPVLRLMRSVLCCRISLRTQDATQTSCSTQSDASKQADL
EP2, sequence (P43116 whole entry): as above
PTGER4 (EP4), sequence (P35408 whole entry): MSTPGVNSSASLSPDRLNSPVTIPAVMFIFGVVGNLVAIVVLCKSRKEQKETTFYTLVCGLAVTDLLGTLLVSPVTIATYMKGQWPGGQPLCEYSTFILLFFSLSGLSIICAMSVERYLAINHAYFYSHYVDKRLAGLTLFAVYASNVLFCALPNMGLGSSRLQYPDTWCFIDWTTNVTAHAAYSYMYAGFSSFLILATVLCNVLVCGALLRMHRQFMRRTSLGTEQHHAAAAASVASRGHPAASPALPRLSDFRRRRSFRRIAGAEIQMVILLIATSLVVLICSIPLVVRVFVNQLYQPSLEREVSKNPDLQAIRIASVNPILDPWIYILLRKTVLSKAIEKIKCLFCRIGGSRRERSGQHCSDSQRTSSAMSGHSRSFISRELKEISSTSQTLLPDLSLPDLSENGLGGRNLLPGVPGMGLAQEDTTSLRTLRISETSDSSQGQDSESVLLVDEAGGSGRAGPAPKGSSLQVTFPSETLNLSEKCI
EP4, sequence (P35408 whole entry): as above

Take `CCOc1cc(-c2cc(NCCc3ccc4sccc4c3C)ncn2)sc1C(=O)O` [Ex 20]: the IC50 on PTGER2 (EP2) was determined as 27 nM; on EP2, 11 nM; at PTGER4 (EP4), 74 nM; against EP4 it was 12 nM.

Regarding `Cc1c(CCNc2cc(-c3ccc(C(=O)O)c(OC4CCC4)c3)ncn2)ccc2sccc12` [Ex 268], the IC50 on PTGER2 (EP2) was determined as 25 nM; against EP2, 47 nM; on PTGER4 (EP4), 688 nM; on EP4, 342 nM.

For `CCOc1cc(-c2cc(NCCc3cc(F)c4c(c3)OCCO4)ncn2)sc1C(=O)O` [Ex 35], the IC50 was 359 nM at PTGER2 (EP2), 194 nM on EP2, 23 nM against PTGER4 (EP4) and 18 nM against EP4.

For `COc1cc2sccc2cc1CCNc1cc(-c2ccc(C(=O)O)c(OC3CCC3)c2)ncn1` [Ex 63], the IC50 on PTGER2 (EP2) turned out to be 16 nM; against EP2, 12 nM; on PTGER4 (EP4), 50 nM; on EP4, 33 nM.

For the compound `CCOc1cc(-c2cc(NCCc3cc(F)c4cc(C)sc4c3OC)ncn2)sc1C(=O)O` [Ex 94], the IC50 was 423 nM on PTGER2 (EP2), 528 nM on EP2, 49 nM against PTGER4 (EP4) and 59 nM at EP4.

As for `CSc1cc(-c2cc(NCCc3ccc4cccc(F)c4c3)ncn2)ccc1C(=O)O` [Ex 243], the IC50 at PTGER2 (EP2) is 493 nM; on EP2 it was 2100 nM; at PTGER4 (EP4), 147 nM; against EP4 it was 355 nM.

Consider `CCOc1cc2sccc2cc1CCNc1cc(-c2ccc(OCC(=O)O)c(OCC)c2)ncn1` [Ex 53], for which the IC50 at PTGER2 (EP2) was determined as 5 nM; on EP2, 12 nM; on PTGER4 (EP4), 12 nM; against EP4, 25 nM.

Turning to `CSc1cc(-c2cc(NCCc3ccc4sccc4c3C)ncn2)ccc1CC(=O)O` [Ex 326], the IC50 turned out to be 126 nM on PTGER2 (EP2), 160 nM on EP2, 1070 nM at PTGER4 (EP4) and 910 nM against EP4.

In the case of `CCOc1cc(-c2cc(NCCc3c(F)cc4ccccc4c3F)ncn2)sc1C(=O)O` [Ex 335], the IC50 on PTGER2 (EP2) was 100 nM; against EP2, 268 nM; on PTGER4 (EP4), 12 nM; against EP4 it was 3 nM.

For `COc1cc2ccccc2c(C)c1CCNc1cc(-c2ccc(CC(=O)O)c(SC)c2)ncn1` [Ex 163], the IC50 on PTGER2 (EP2) amounted to 85 nM; against EP2, 246 nM; against PTGER4 (EP4), 98 nM; against EP4, 158 nM.

With `CSc1cc(-c2cc(NCCc3c(F)cc4ccccc4c3F)ncn2)ccc1CC(=O)O` [Ex 270], the IC50 at PTGER2 (EP2) was 1520 nM; against EP2, 5660 nM; on PTGER4 (EP4), 404 nM; on EP4 it was 435 nM.

Turning to `COc1cc2c(cc1CCNc1cc(-c3ccc(CC(=O)O)c(SC)c3)ncn1)OCCO2` [Ex 197], the IC50 at PTGER2 (EP2) is 127 nM; at EP2, 176 nM; at PTGER4 (EP4), 300 nM; against EP4, 224 nM.

With `CSc1cc(-c2cc(NCCc3c(C#N)cc4ccccc4c3C)ncn2)ccc1C(=O)O` [Ex 52], the IC50 on PTGER2 (EP2) stood at 318 nM; on EP2, 158 nM; against PTGER4 (EP4) it was 63 nM; at EP4 it was 25 nM.

As for `COc1cc2c(cc1CCNc1cc(-c3ccc(C(=O)O)c(OC4CCC4)c3)ncn1)OCCO2` [Ex 187], the IC50 on PTGER2 (EP2) amounted to 74 nM; against EP2, 64 nM; against PTGER4 (EP4), 144 nM; at EP4 it was 206 nM.

With `COc1cc2ccccc2c(F)c1CCNc1cc(-c2ccc(C(=O)O)c(SC)c2)ncn1` [Ex 29], the IC50 on PTGER2 (EP2) stood at 53 nM; on EP2, 52 nM; against PTGER4 (EP4), 33 nM; on EP4, 17 nM.

As for `CCOc1cc(-c2cc(NCCc3ccc4cccc(F)c4c3)ncn2)ccc1CC(=O)O` [Ex 314], the IC50 on PTGER2 (EP2) is 3460 nM; on EP2, 9230 nM; against PTGER4 (EP4) it was 378 nM; against EP4, 701 nM.

As for `CCOc1cc(-c2cc(NCCc3ccc4ncccc4c3F)ncn2)sc1C(=O)O` [Ex 69], the IC50 is 438 nM on PTGER2 (EP2), 222 nM on EP2, 59 nM against PTGER4 (EP4) and 38 nM against EP4.

For the compound `CCOc1cc(-c2cc(NCCc3c(OC)cc4ccccc4c3C)ncn2)ccc1CC(=O)O` [Ex 61], the IC50 on PTGER2 (EP2) was 148 nM; against EP2 it was 214 nM; against PTGER4 (EP4) it was 28 nM; on EP4, 46 nM.

Consider `CCOc1cc(-c2cc(NCCc3ccc4ncoc4c3)ncn2)sc1C(=O)O` [Ex 146], for which the IC50 at PTGER2 (EP2) is 258 nM; on EP2, 115 nM; on PTGER4 (EP4) it was 361 nM; at EP4, 137 nM.

With `CCOc1cc(-c2cc(NCCc3cc4cccnc4c(F)c3Cl)ncn2)sc1C(=O)O` [Ex 117], the IC50 at PTGER2 (EP2) was 53 nM; against EP2 it was 61 nM; against PTGER4 (EP4), 131 nM; against EP4, 88 nM.

As for `CCOc1cc(-c2cc(NCCc3c(C#N)cc4ccccc4c3F)ncn2)ccc1C(=O)O` [Ex 73], the IC50 on PTGER2 (EP2) was 809 nM; at EP2, 1770 nM; at PTGER4 (EP4) it was 91 nM; against EP4 it was 39 nM.

`CSc1cc(-c2cc(NCCc3cc4ccsc4cc3C#N)ncn2)ccc1C(=O)O` [Ex 77]: the IC50 amounted to 47 nM on PTGER2 (EP2), 25 nM against EP2, 154 nM against PTGER4 (EP4) and 43 nM against EP4.

For the compound `CCOc1cc(-c2cc(NCCc3ccc4scc(C#N)c4c3)ncn2)ccc1C(=O)O` [Ex 253], the IC50 on PTGER2 (EP2) is 521 nM; against EP2 it was 158 nM; on PTGER4 (EP4) it was 671 nM; at EP4, 373 nM.

On to `CSc1cc(-c2cc(NCCc3cc4ccsc4cc3C)ncn2)ccc1CC(=O)O` [Ex 305], for which the IC50 on PTGER2 (EP2) amounted to 57 nM; at EP2, 232 nM; against PTGER4 (EP4), 1350 nM; against EP4, 653 nM.

In the case of `COc1cc2c(cc1CCNc1cc(-c3ccc(C(=O)O)c(CC(C)C)c3)ncn1)OCCO2` [Example 416], the IC50 came out at 245 nM at PTGER2 (EP2), 123 nM against EP2, 82 nM against PTGER4 (EP4) and 83 nM on EP4 (BT549 cells).

Regarding `CCOc1cc(-c2cc(NCCc3ccc4sccc4c3C)ncn2)ccc1CC(=O)O` [Ex 289], the IC50 was 144 nM on PTGER2 (EP2), 358 nM against EP2, 964 nM against PTGER4 (EP4) and 525 nM against EP4.

As for `CCOc1cc(-c2cc(NCCc3cc4ccsc4cc3OC)ncn2)ccc1OCC(=O)O` [Ex 80], the IC50 came out at 17 nM on PTGER2 (EP2), 37 nM against EP2, 32 nM against PTGER4 (EP4) and 45 nM against EP4.

For `CCOc1cc(-c2cc(NCCc3ccc4sccc4c3C)ncn2)ccc1C(=O)O` [Ex 296], the IC50 on PTGER2 (EP2) was 34 nM; against EP2, 61 nM; against PTGER4 (EP4) it was 1600 nM; against EP4 it was 583 nM.

Broadly, the IC50 is the concentration that gives 50% inhibition.
